# Values quoted from earlier work as cited in US7829698B2, “Nano-particles comprising cucurbituril derivatives, pharmaceutical composition containing the same, and process for the preparation thereof” (Postech Foundation, priority 2003, dated 2010).
# Peptide text beside a SMILES is read from it.
# Details: host cucurbituril
row,SMILES,Kf (non-covalent coupling constant between cucurbituril and guest molecule) [M⁻¹]
1,CCC(=O)O [CH3CH2COOH],590
2,CC(C)[C@H](NC(=O)CN)C(=O)O [Gly-val] (H-Gly-Val-OH),1500
3,N#CCCN [H2N(CH2)2CN],440
4,NCCC(=O)O [H2N(CH2)2COOH],2300
5,NCCCCCO [H2N(CH2)5OH],690
6,C[C@H](N)C(=O)O [L-Ala],1000
7,CC(C)[C@H](N)C(=O)O [L-Val],1400
8,CC(C)C[C@H](N)C(=O)NCC(=O)O [Leu-gly] (H-Leu-Gly-OH),370
9,CCCCCN [Me(CH2)4NH2],24000
10,NCCCCCCN [NH2(CH2)6NH2],2.7e+06
11,N[C@@H](Cc1ccccc1)C(=O)NCC(=O)O [Phe-gly] (H-Phe-Gly-OH),1100
12,N[C@@H](Cc1ccccc1)C(=O)O [Phe],1400
